Entries after “also recorded” stand apart in the source; their conditions may differ.
Key:
[1] = tested on: human induced pluripotent stem cell-derived cardiomyocyte (hiPSC-CM) tissue-engineered ventricles; test: β-adrenergic response of tissue-engineered hiPSC-CM ventricles by pressure-volume catheterization; type: cell-based
Experimental: (§1) Intra-ventricular pressure and volume were measured simultaneously using a Millar MPVS-Ultra single segment foundation system for rats with SPR-869NR rat pressure-volume (PV) catheters (ADInstruments, Colorado Springs, CO). Catheter calibration and PV experiments were performed in freshly prepared Tyrode's solution. First, tissue-engineered ventricles were transferred to a 3.5 cm petri dish mounted on a temperature-controlled stage (Warner Instruments, Hamden Conn.) to maintain 35° C. working temperature. Ventricles were sutured to silicone tubing through which catheters were inserted (FIG. 12A). Data acquired at a sampling rate of 2,000 samples per second using manufacturer-supplied acquisition systems (Millar MPVS ultra, ADInstruments LabChart) and was exported for post-processing with custom Matlab scripts (MathWorks, Natick MA).
(§2) Catheter calibration. Catheters were equilibrated at 35° C. prior to use and calibrated for pressure using a manometer (Meriam M2; Meriam Process Technologies, Cleveland, OH) and volume using manufacturer-supplied cuvettes (Millar P/N 910-1048). […] Separate scaffold-specific calibrations were performed, where cell-free scaffolds were inflated and deflated by manual application of pressure through a solution-filled syringe connected to the ventricle through a junction port. […] In some cases, pressure or volume signal noise and drift were reduced by post-processing using Matlab's smooth and polyfit functions (FIG. 12C). Pressure and volume signals were normalized by polynomial background subtraction to reduce unwanted signal drift from large data sets, clarifying frequency-domain analysis of ventricle beat rates over these time periods (FIGS. 13A-13D).
(§3) β-adrenergic response of tissue-engineered ventricles. The contractile response of tissue-engineered ventricles to increasing concentrations of the β-adrenergic agonist isoproterenol was measured as follows. A 100 mM stock solution of isoproterenol (Sigma-Aldrich) containing 110 μM ascorbic acid (Sigma-Aldrich) and 45 μM EDTA (Sigma-Aldrich) was prepared in Tyrode's solution and stored at −20° C. […]

[2] = tested on: neonatal rat ventricular myocyte (NRVM) tissue-engineered ventricles; test: β-adrenergic response of tissue-engineered NRVM ventricles by pressure-volume catheterization; type: cell-based
Experimental: as §1, §2, §3

In the case of `CC(C)NCC(O)c1ccc(O)c(O)c1` (stereo not drawn) [isoproterenol], the “chronotropic response of ventricle beat rate” value ([1]; hiPSC-CM ventricles, 1 e^−10 M to 1 e^−4 M, cumulative doses) is reported as “positive chronotropic response”, the “increase of ventricle beat rate” value ([1]; hiPSC-CM ventricles, 10^−4 M isoproterenol, compared to spontaneous baseline (no Iso)) is reported as ~ 40% and the “effect on stroke work (pressure/volume loops)” value ([1]; human (hiPSC-CM) ventricles, before vs after isoproterenol exposure) is reported as “reduction in stroke work; also recorded: reduced stroke work”. For the same compound, the “chronotropic response of ventricle beat rate” value ([2]; NRVM ventricles, 1 e^−10 M to 1 e^−4 M, cumulative doses) was “positive chronotropic response”, the “increase of ventricle beat rate” value ([2]; NRVM ventricles, 10^−4 M isoproterenol, compared to spontaneous baseline (no Iso)) was ~ 40% and the “effect on stroke work (pressure/volume loops)” value ([2]; rat (NRVM) ventricles, before vs after isoproterenol exposure) was “reduction in stroke work; also recorded: reduced stroke work”.

— US12698467B2, “Tissue engineered scaffolds, instrumented bioreactors and methods of use thereof” (President and Fellows of Harvard College, priority 2018, dated 2026)
